Assay results: publication PMC7926980, “The Antiproliferative and Apoptotic Effect of a Novel Synthesized S-Triazine Dipeptide Series, and Toxicity Screening in Zebrafish Embryos” (Molecules, 2021)
Entries after “also recorded” stand apart in the source; their conditions may differ.

Key:
[1] = system: MCF-7 cells; assay: Annexin V-FITC/PI apoptotic assay by flow cytometry; format: cell-based, human; conditions: 2 µM, 48 h; control 8.3%
Procedure: In order to determine the capacity of compound 3a to induce apoptosis, an Annexin V-FITC/PI dual staining assay was performed on the MCF-7 cells by flow cytometry.
Flow cytometry using Annexin V and propidium iodide (PI) was performed in order to detect apoptotic cell death. MCF-7 cells were seeded at a density of 1 × 10^5 cells/well, treated with the vehicle (0.1% (v/v) EtOH) or compound 3a (2 µM), and incubated for 48 h. The cells were then harvested and washed twice in 1X binding buffer, and incubated in the dark for 30 min on ice in Annexin V-containing binding buffer [1:100]. They were then re-suspended in PI-containing binding buffer [1:1000]. The samples were analyzed immediately using a BD Accuri flow cytometer, and GraphPad Prism software version 5.01 was used to analyze the data. Four populations were identified during the assay: Annexin V-negative and PI-negative (Q4, healthy cells), Annexin V-positive and PI-negative (Q3, early apoptosis), Annexin V-positive and PI-positive (Q2, late apoptosis), and Annexin V-negative and PI-positive (Q1, necrosis).
Figure 5 Compound 3a potently induces apoptosis in breast cancer MCF-7 cells (Annexin V/PI Fluorescence-activated cell sorting (FACS)). (A) Flow cytometry analysis of the effect of compound 3a on MCF-7 cells. […] (B) The quantitative analysis of the apoptosis. […]

[2] = Zebrafish embryo mortality/toxicity; format: in vivo; conditions: wild-type, in vivo; zebrafish embryos, overnight exposure, 0.5 to 1000 µM; mean of three biological replicates ± standard deviation
Procedure: (§1) The zebrafish embryos were obtained by natural pairwise breeding, and were treated essentially as described previously.
(§2) The compounds were dissolved in dimethylsulfoxide (DMSO) in order to prepare a stock concentration of 10 mM. The embryos treated with 0.10% DMSO (v/v) served as the negative controls.
(§3) The fish were kept following the national and international guidelines for the care and use of laboratory animals. The fertilized eggs were obtained by the natural pairwise breeding of adult fish. The approval of the Ethics Committee for the use and care of laboratory animals was not needed, as zebrafish larvae less than 5 days post fertilization were used.
(§4) A stock solution of 50 mM was prepared by dissolving the compounds in dimethyl sulfoxide (DMSO). At least 30 fertilized eggs were sorted and placed in 60-mm sterile glass Petri dishes. A serial dilution of the compounds was prepared by adding the required amount of the compound directly into 5 mL water, and the zebrafish embryos were then exposed to serial dilutions (0.5 to 1000 µM) of each compound overnight. The number of dead and living embryos were counted after the overnight exposure.

[3] = system: zebrafish embryos; assay: Zebrafish embryo mortality/toxicity; format: in vivo; conditions: maximum concentration tested 1 mM, versus DMSO control
Procedure: as §1, §2, §3, §4

[4] = system: MCF-7 cells; assay: MTT cell viability assay, MCF-7; format: cell-based, human; conditions: 72 h treatment
Procedure: (§5) The antiproliferative activity of the synthesized compounds was evaluated by the 3-(4,5-dimethylthiazol-2-yl)-2,5-diphenyl tetrazolium bromide (MTT) cell viability assay. Two types of breast cancer cell lines—namely MCF-7, which has estrogen and progesterone receptors, and MDA-MB-231, which is triple negative—were used, in addition to a colon cancer cell line (HCT-116).
(§6) The target products 3a–o were evaluated for their antiproliferative activity using the MTT viability assay of the MCF-7, MDA-MB-231 and HCT-116 cell lines (in triplicate) on at least three independent occasions for the determination of the reported mean values.
(§7) The three human tumor cell lines MCF-7, MDA-MB-231 and HCT-116 were cultured in Dulbecco’s Modified Eagle’s Medium (DMEM) with 10% fetal bovine serum, 2 mM L-glutamine and 100 µg/mL penicillin/streptomycin. The cells were maintained at 37 °C in 5% CO2 in a humidified incubator. All of the cells were sub-cultured 3 times/week by trypsinization using TrypLE Express (1×).
(§8) In order to calculate the relative IC50 values, the antiproliferative effect of compounds 3a–o was tested in three cancer cell lines (MCF-7, MDA-MB-231, HCT-116) and normal epithelial embryonic kidney cells (HEK-293) using the MTT viability assay. The cells were seeded in 96-well plates at a density of 10 × 10^3 cells/mL, in a total volume of 200 µL per well. In total, 0.1% DMSO was used as a vehicle control. […] The culture medium was then removed, and the cells were washed with phosphate-buffered saline (PBS), and 100 µL MTT was added (for a final concentration of 5 mg/mL MTT). The cells were incubated for 4 h in darkness at 37 °C. Next, 200 µL DMSO was added to each well, and the cells were maintained at room temperature in darkness for 20 min. The absorbance was detected with a microplate reader at 570 nm. The results were expressed as a percentage of viability relative to the vehicle control (100%). The dose-response curves were plotted, and the IC50 values were obtained using Prism software (GraphPad Software, Inc., La Jolla, CA, USA). All of the experiments were repeated in three independent experiments.

[5] = system: HCT-116 cells; assay: MTT cell viability assay, HCT-116; format: cell-based; conditions: Homo sapiens, 72 h treatment
Procedure: as §5, §6, §7, §8

Question: For `COC(=O)CNC(=O)CNc1nc(Nc2ccccc2)nc(N2CCOCC2)n1` [Compound 3a, Methyl (4-morpholino-6-(phenylamino)-1,3,5-triazin-2-yl) glycylglycinate], which “Annexin V-positive cells (total apoptotic cells)” value [1] is on record?
Answer: 37.4%

Question: And the LC50 [2]?
Answer: > 1000 µM

Question: And the “toxicity / mortality in zebrafish embryos” value [3]?
Answer: did not show any toxicity; also recorded: same mortality ratio as the control

Question: What about the IC50 [4] of the same molecule?
Answer: 0.82 ± 0.37 µM

Question: What about the IC50 ([4]; Homo sapiens, MCF7, 72 h) of the same molecule?
Answer: < 1 µM

Question: And the IC50 [5]?
Answer: 17.9 ± 3.74 µM
